Here are results for 28 compounds from PubChem BioAssay (NCI).

Assay in all cases: NCI tumour cell line growth inhibition, 48 h
For assay [1], the system named is EKVX NSCLC.
The subject of assay [2] is MDA-N.
The subject of assay [3] is OVCAR-3 ovarian.
The test system of assay [4] is RXF 393 renal.
Assay [5] concerns SF-268 CNS.
Assay [6] deals with SF-539 CNS.
For assay [7], the system named is SK-OV-3 ovarian.
Assay [8] concerns U251 CNS.
The test system of assay [9] is MALME-3M melanoma.
Assay [10] has as its system SN12C renal.
For assay [11], the system named is SNB-19 CNS.

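96-well plates; 48 h exposure; 5 concentrations. Endpoints by linear interpolation between flanking doses. Not reached: highest tested concentration assigned. TGI denotes the concentration required for complete inhibition of growth.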

For the compound `COc1cc(C=C2C(C)=NN(c3cccc(Cl)c3)C23C(Cl)C(=O)N3c2nc3ccccc3s2)ccc1O` (configuration not stated), the TGI in assay [1] is > 100 µM; in assay [2], 74.7 µM; in assay [3] it was 72.2 µM; in assay [4], 30.3 µM; in assay [5], 16 µM; in [6] it was > 100 µM. Further, the TGI in [7] was 59.5 µM; in assay [8] it was 35 µM.

Consider `O=c1[nH]c2cc([N+](=O)[O-])ccc2nc1/C(=N/Nc1ccccc1)C(O)c1ccc(C(O)/C(=N\Nc2ccccc2)c2cnc3cc([N+](=O)[O-])ccc3n2)cc1` (configuration not stated), for which the TGI in assay [1], in [9], in [3], in assay [4], in assay [5] and in [6] was > 100 µM throughout. Also, the TGI in assay [7], in assay [10] and in assay [11] was > 100 µM throughout.

Take `Cc1ccc2c(sc(-c3ccc4c(c3)sc(-c3ccc5c(c3)sc(-c3ccc(N(C)C)cc3)[n+]5C)[n+]4C)[n+]2C)c1S(=O)(=O)O` (tested in a mixture with another compound): the TGI in assay [1], in assay [2], in [3], in assay [5], in assay [6] and in assay [7] was > 100 µM in each case. Further, the TGI in assay [10], in [11] and in [8] was > 100 µM each time.

Take `OC[C@]1(n2nc3ccccc3n2)OC[C@@H]1c1ccccc1`: the TGI in [1] is > 100 µM; in assay [9], > 100 µM; in assay [2] it was > 100 µM; in assay [3], 71.2 µM; in [5] it was > 100 µM; in assay [6], 69.2 µM. The TGI in assay [7], in assay [10], in assay [11] and in [8] was > 100 µM in each case.

Regarding `CS(=O)(=O)c1c(N)c2nc(Cl)cn2c2nc3ccccc3nc12`, the TGI in assay [1], in assay [9], in assay [3], in [5], in assay [6] and in assay [7] was > 100 µM each time. Also, the TGI in [10], in [11] and in assay [8] was > 100 µM each time.

On to `CC(=O)c1ccc2c(ccc(=O)n2C)c1`, for which the TGI in [1], in [9], in [3], in assay [5], in [6] and in assay [7] was > 100 µM each time. Also, the TGI in assay [10], in assay [11] and in assay [8] was > 100 µM each time.

Consider `O=C(O)Cc1ccc(Oc2nc3ccccc3nc2C(=O)O)cc1`, for which the TGI in [1], in assay [3], in assay [5], in [6], in assay [7] and in assay [10] was > 100 µM in each case. The TGI in assay [11] and in assay [8] was > 100 µM each time.

For the compound `CCN1C[C@]2(C)CC[C@H](OC)C34C1C([C@H](OC(C)=O)[C@@H]32)[C@@]1(OC)C[C@H](OC)[C@H]2C[C@@H]4[C@@H]1[C@H]2O`, the TGI in assay [1], in [9], in assay [4], in [5], in assay [6] and in assay [7] was > 100 µM each time. Moreover, the TGI in assay [10], in assay [11] and in [8] was > 100 µM in each case.

In the case of `C=C(C)C1CC/C(C)=C/CC[C@]2(C)O[C@H]2CC/C(COC(C)=O)=C\[C@@H]1O` (some centres not stated), the TGI in [1], in assay [3], in [4], in assay [5], in assay [6] and in assay [7] was > 50 µM each time. Moreover, the TGI in assay [10], in assay [11] and in assay [8] was > 50 µM throughout.

Turning to `CN(CCO)c1nc(N)cc(=O)[nH]1`, the TGI in assay [1], in assay [9], in assay [3], in assay [4], in assay [5] and in assay [6] was > 100 µM throughout. The TGI in [7], in assay [10], in assay [11] and in [8] was > 100 µM in each case.

With `CCN(CC)CCCC(C)Nc1ccnc2ccc3nn(C)nc3c12` (configuration not stated), the TGI in [1], in [9], in assay [5], in assay [6], in [7] and in assay [10] was > 100 µM each time. Also, the TGI in assay [11] and in assay [8] was > 100 µM throughout.

As to `NC(=O)NC(=O)c1cccc(CNc2ccc(C(=O)N[C@@H](CCC(=O)O)C(=O)O)cc2)n1`, the TGI in [1], in [2], in [3], in [5], in assay [6] and in assay [7] was > 100 µM in each case. For the same compound, the TGI in [10] and in [8] was > 100 µM in each case.

For `CCOC(=O)c1nc2ccccc2nc1Nc1ccc(OC)c(OC)c1`, the TGI in assay [1], in [9], in assay [2], in assay [3], in [5] and in assay [6] was > 100 µM throughout. Moreover, the TGI in [7], in [10], in assay [11] and in assay [8] was > 100 µM throughout.

Regarding `O=C(Cc1csc(N=Nc2c(O)[nH]c3ccccc23)n1)Nc1ccccc1`, the TGI in assay [1] was 52.8 µM; in [3] it was 93.3 µM; in [4], > 100 µM; in assay [5], 41.4 µM; in assay [6], 79.4 µM; in assay [7], > 100 µM. Moreover, the TGI was > 100 µM in assay [10], 85.4 µM in [11] and 55.2 µM in [8].

For the compound `C=C(C)CC1(O)C(=O)C(OCC)=C1OCC` (configuration not stated), the TGI in [1], in assay [9], in assay [2], in [3], in assay [5] and in assay [6] was > 100 µM throughout. The TGI in [7], in assay [10], in [11] and in [8] was > 100 µM in each case.

For `O=C(C[n+]1ccccc1)N/N=C(\Cc1nc2ccc([N+](=O)[O-])cc2[nH]c1=O)C(=O)Nc1cc(Cl)c(Cl)cc1Cl`, the TGI in assay [1], in [9], in assay [3], in assay [4], in [5] and in [6] was > 100 µM throughout. Also, the TGI in assay [7], in assay [10], in [11] and in assay [8] was > 100 µM each time.

Consider `O=C(CCCNc1nc(-c2ccccc2)cs1)c1cccs1`, for which the TGI in assay [1], in assay [9], in assay [2], in assay [3], in assay [5] and in assay [6] was > 100 µM in each case. For the same compound, the TGI in assay [7], in assay [10], in assay [11] and in assay [8] was > 100 µM each time.

Regarding `C/C=C1/CN2CCC3(O)c4ccccc4N4C=C(C(=O)OC)C1CC2C43O` (configuration not stated), the TGI in assay [1], in assay [9], in assay [2], in assay [3], in assay [5] and in [6] was > 100 µM in each case. For the same compound, the TGI in [7], in assay [10], in assay [11] and in [8] was > 100 µM in each case.

As to `C=C1C(=O)OC2/C=C(/C)C3CC(O)C(C)(CC(OC(=O)/C(C)=C/C)C12)O3` (configuration not stated), the TGI in [1] is 14.5 µM; in assay [9], 4.48 µM; in assay [3] it was 14.2 µM; in assay [4], 3.49 µM; in [5], 14.4 µM; in assay [6], 4.86 µM. The TGI was > 65.2 µM in [7], 11.3 µM in [10], 30.8 µM in assay [11] and 25.3 µM in assay [8].

On to `O=C(O)CS`, for which the TGI in assay [1], in [9], in [4], in assay [5], in assay [6] and in assay [7] was > 100 µM in each case. Further, the TGI in assay [10], in [11] and in [8] was > 100 µM in each case.

Consider `COP(=O)(Cc1ccccc1)Cc1ccccc1`, for which the TGI in assay [1], in assay [9], in [4], in [5], in assay [6] and in [7] was > 100 µM throughout. Further, the TGI in [10] and in [8] was > 100 µM each time.

As to `CCCCc1ccc(Nc2nc(=S)c3[nH]cnc3[nH]2)cc1`, the TGI in assay [9] was 37 µM; in assay [3], 43 µM; in assay [5], > 100 µM; in assay [6] it was 48 µM; in assay [10], 59 µM; in assay [11], 56.8 µM. Moreover, in assay [8], the TGI was > 100 µM.

Take `O=C(NNC(c1ccccc1)C(F)(F)F)c1ccncc1` (configuration not stated): the TGI in assay [1], in assay [9], in assay [5], in assay [6], in [10] and in assay [11] was > 100 µM in each case. Also, in [8], the TGI is > 100 µM.

As to `CC(C)CCC[C@@H](C)C1CCC2[C@@H]3CC=C4C[C@@H](C(=O)NCC[N+](C)(C)CCCS(=O)(=O)[O-])CC[C@]4(C)C3CC[C@@]21C` (some centres not stated), the TGI in assay [1] is 31 µM; in assay [9], 33.3 µM; in assay [3], 30 µM; in assay [4], 36.5 µM; in assay [5], 37.8 µM; in [6], 36.6 µM. The TGI in [7] stood at 30.9 µM; in [10] it was 32.6 µM; in [11] it was 36.4 µM; in [8], 31.2 µM.

In the case of `Cc1nc(C(N)=S)sc1C(/C=C/c1ccc(Cl)c(Cl)c1)=N/NC(C)(C)C`, the TGI in [1], in assay [2], in assay [4], in assay [5], in [6] and in assay [7] was > 100 µM throughout. Besides, the TGI in assay [10], in assay [11] and in assay [8] was > 100 µM each time.

`c1ccc(C2=NOC3(c4ccccc4)SC4CCCCC4CN23)cc1` (configuration not stated): the TGI is > 100 µM in assay [1]; > 100 µM in assay [9]; > 100 µM in assay [3]; 71.2 µM in assay [4]; 95.5 µM in assay [5]; 39.2 µM in assay [6]. Moreover, the TGI in assay [7] is > 100 µM; in assay [10], > 100 µM; in [11], > 100 µM; in assay [8] it was 37.6 µM.

For the compound `CC(C)(C)NC(=O)NC12CC3CC(CC(F)(C3)C1)C2`, the TGI in assay [1], in [9], in [3], in assay [4], in assay [6] and in [7] was > 100 µM throughout. The TGI in [11] and in assay [8] was > 100 µM throughout.

`CC1(C)CC23CC(C)(C)c4cccc(c42)OCc2ccc4ccc5ccc(nc5c4n2)COc2cccc1c23`: the TGI in [1], in [2], in [3], in [5], in [6] and in assay [7] was > 50 µM throughout. The TGI was > 50 µM in assay [10], > 5 µM in [11] and > 50 µM in assay [8].
